What was measured:
[1] = system: neuroblastoma-spinal cord hybrid NSC-34 cells; test: Neuroprotective effect/cell viability analysis in NSC-34 cells against H2O2 induced oxidative stress; type: cell-based; conditions: for neuroprotection in scavenging neurotoxic effects of H2O2 compared to EDR / viability compared to EDR: 250 μM H2O2; for viability compared to EDR: 50 μM dose
Method: (§1) Methods: The in vitro properties and antioxidant abilities of the synthesized B^5-EDR analogues were assessed in cell-based assays. […] The methodology employed for each of these assays is detailed below.
(iii) Methodology for neuroprotective effect/cell viability analysis in (NSC-34) cells (FIGS. 8A-B): Briefly, NSC-34 cells with about 20 k cells per well in 96 well plates were cultured in a complete medium consisting of high glucose Dulbecco's modified eagle medium (DMEM) (Thermo Fisher Scientific) supplemented with about 10% US-origin fetal bovine serum (Thermo Fisher Scientific), GlutaMAX-1, about 200 mM (100×) (Thermo Fisher Scientific), about 1% 100 mM Sodium pyruvate and about 1% 10,000 U/mL penicillin-streptomycin solution (Thermo Fisher Scientific) for about 20 h to reach confluency of about 70%—about 75%. All the cells were cultured in an incubator with about 5% of CO2 at about 37° C. About 20 kcells/100 μl/well were seeded in 96 well plates for about 20 h in triplicates. […] After about 1 h, the cells were treated with 250 μM of H2O2 for about 2 h. After a total period of about 3 h, about 10 μl of WST-8 reagent was added in each well and the absorbance readings were recorded after about 2.5 h at about 450 nm. All the experiments were repeated at least three times and measurements were run in triplicates.

[2] = system: primary cortical neuronal cells; test: Neurotoxicity/cell viability analysis in primary cortical neuronal cells (WST-8); type: cell-based, mouse; conditions: for cell viability compared to controls: 10 μM and 1 μM, FIG. 6B
Method: as §1
(i) Methodology for neurotoxicity/cell viability analysis in primary cortical neuronal cells (FIGS. 6A-B): Briefly, the cerebral cortex was isolated from fetus of mouse at about 17-about 18-day gestation. After meninges and blood vessels were removed, the tissue was digested with trypsin for about 15 min at about 37° C., then incubated with DNase for about another 15 min at about 37° C. and terminated with DMEM plus about 10% fetal bovine serum. After the supernatant was removed, the tissue was added with about 5-ml neurobasal medium (Life Technologies Inc) and triturated by gently pipetting. Neuronal cells contained in the supernatant were transferred to poly-D-lysine-coated plastic culture plates, adjusted to approximately […], and cultured in neurobasal medium with GS21 supplements (Sigma-Aldrich Canada), 1× GlutaMax (Life Technologies Inc,) and about 1% penicillin-streptomycin at about 37° C. under about 5% CO2. About 100 kcells/100 μl/well were seeded in 96 well plates for 2 Div. […] On 8th Div of neurons, about 10 μl of WST reagent was added to each well and incubated for about 2 h. After about 2 h of incubation, the absorbance of soluble coloured formazan dye was measured […] at about […] using microplate reader (Biotek instruments) with the background control as a blank. The cell viability was determined by comparing the absorbance of compounds treated cells to that of control cells. Data are representative of two independent experiments, with each measurement or dose tested six times.

ALS = conditions: patients in early stages, drug for 6 months or more; cited from earlier work
CYP3A4 enzymes = CYP3A4 enzymes (Homo sapiens, UniProt P08684); conditions: cited from earlier work
[3] = system: neuroblastoma-spinal cord hybrid NSC-34 cells; test: Neurotoxicity/cell viability analysis in NSC-34 cells (WST-8); type: cell-based; conditions: 1 to 100 μM
Method: as §1
(ii) Methodology for neurotoxicity/cell viability analysis in (NSC-34) cells (FIGS. 7A-C): Briefly, NSC-34 cells with about 20 k cells per well in 96 well plates were cultured in a complete medium consisting of high glucose Dulbecco's modified eagle medium (DMEM) (Thermo Fisher Scientific) supplemented with about 10% US-origin fetal bovine serum (Thermo Fisher Scientific), GlutaMAX-1, about 200 mM (100×) (Thermo Fisher Scientific), about 1% 100 mM Sodium pyruvate and about 1% 10,000 U/mL penicillin-streptomycin solution (Thermo Fisher Scientific) for about 20 h to reach confluency of about 70%—about 75%. All the cells were cultured in an incubator with about 5% of CO2 at about 37° C. About 20 kcells/100 μl/well were seeded in 96 well plates for about 20 h in triplicates. Cells were treated with different concentration of compounds and incubated for about 20 h. […] After about 2.5 h of incubation, the absorbance of soluble coloured formazan dye was measured […] at about […] using microplate reader (Biotek instruments) with the background control as a blank. The cell viability was determined by comparing the absorbance of compounds treated cells to that of control cells. […]

[4] = system: neuroblastoma-spinal cord hybrid NSC-34 cells; test: Neuroprotective effect/cell viability analysis in NSC-34 cells against H2O2 induced oxidative stress; type: cell-based; conditions: prophylactic treatment, 250 μM H2O2, FIG. 7A
[5] = cited from earlier work
[6] = biological target: P-glycoprotein (Pgp) efflux pump (Homo sapiens, UniProt P08183); conditions: cited from earlier work
Chain of P-glycoprotein (Pgp) efflux pump (P08183 whole entry): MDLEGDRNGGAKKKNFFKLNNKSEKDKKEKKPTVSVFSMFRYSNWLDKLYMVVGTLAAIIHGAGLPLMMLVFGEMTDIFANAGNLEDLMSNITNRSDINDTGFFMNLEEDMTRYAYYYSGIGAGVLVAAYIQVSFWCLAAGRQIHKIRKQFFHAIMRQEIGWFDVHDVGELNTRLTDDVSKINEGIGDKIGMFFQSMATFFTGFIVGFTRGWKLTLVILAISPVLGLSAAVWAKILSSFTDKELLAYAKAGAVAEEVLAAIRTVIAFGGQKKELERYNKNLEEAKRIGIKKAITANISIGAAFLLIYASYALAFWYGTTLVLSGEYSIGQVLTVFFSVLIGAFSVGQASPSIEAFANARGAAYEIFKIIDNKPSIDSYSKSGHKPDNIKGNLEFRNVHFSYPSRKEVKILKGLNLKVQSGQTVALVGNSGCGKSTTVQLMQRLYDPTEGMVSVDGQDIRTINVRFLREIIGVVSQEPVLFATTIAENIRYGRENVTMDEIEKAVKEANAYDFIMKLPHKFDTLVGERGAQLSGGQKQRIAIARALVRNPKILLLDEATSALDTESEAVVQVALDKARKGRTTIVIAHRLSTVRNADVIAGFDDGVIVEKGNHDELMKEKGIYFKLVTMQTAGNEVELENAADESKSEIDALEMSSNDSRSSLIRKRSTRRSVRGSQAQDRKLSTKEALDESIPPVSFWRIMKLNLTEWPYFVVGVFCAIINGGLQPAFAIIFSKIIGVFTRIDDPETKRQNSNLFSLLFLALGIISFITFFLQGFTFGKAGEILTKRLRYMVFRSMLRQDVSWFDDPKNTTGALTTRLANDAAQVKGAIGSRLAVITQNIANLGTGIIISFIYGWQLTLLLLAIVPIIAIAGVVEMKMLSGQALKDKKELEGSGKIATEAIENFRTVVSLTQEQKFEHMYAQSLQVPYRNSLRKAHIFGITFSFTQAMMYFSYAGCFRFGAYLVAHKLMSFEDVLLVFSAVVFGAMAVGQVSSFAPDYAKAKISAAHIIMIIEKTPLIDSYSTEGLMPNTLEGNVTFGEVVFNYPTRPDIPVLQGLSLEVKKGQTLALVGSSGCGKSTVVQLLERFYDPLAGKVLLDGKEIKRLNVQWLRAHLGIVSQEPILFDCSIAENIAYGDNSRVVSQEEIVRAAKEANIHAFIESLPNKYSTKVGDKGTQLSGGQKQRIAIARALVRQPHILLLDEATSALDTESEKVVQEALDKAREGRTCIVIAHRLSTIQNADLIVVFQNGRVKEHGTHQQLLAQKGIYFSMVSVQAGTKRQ

Chain of CYP3A4 enzymes (P08684 whole entry): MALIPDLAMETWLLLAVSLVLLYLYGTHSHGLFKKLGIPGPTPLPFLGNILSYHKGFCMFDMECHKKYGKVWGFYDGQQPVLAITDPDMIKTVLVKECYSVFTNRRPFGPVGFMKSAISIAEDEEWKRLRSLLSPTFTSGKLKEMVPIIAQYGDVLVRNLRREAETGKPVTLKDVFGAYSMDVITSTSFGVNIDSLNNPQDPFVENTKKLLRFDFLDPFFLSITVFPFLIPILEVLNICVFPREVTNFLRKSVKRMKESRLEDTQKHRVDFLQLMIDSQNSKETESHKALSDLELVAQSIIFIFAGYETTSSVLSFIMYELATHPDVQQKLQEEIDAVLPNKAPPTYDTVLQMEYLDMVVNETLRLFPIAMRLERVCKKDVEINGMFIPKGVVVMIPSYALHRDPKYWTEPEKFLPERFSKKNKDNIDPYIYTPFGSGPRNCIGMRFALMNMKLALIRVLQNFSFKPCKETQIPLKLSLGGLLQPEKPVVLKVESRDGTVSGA

| Compound | neuroprotection in scavenging neurotoxic effects of H2O2 compared to EDR ([1]; 1 μM) | neuroprotection in scavenging neurotoxic effects of H2O2 compared to EDR ([1]; 25 μM) | viability compared to EDR [1] | cell viability compared to controls [2] | effect on progression of ALS (ALS) | metabolism by CYP3A4 (CYP3A4 enzymes) | H2O2 scavenging effects ([1]; 250 μM H2O2, FIGS. 8A-B) | neurotoxicity and cytotoxicity towards NSC-34 motor neuronal cells [3] | decrease in cell viability compared to control (DMSO) ([2]; mouse, 6 days, 25 μM) [%] | protection from loss of cell viability induced by H2O2 [4] | aqueous solubility [5] | fraction of EDR existing as an anion ([5]; physiological pH about 7.4) | fraction of EDR existing in neutral form ([5]; physiological pH about 7.4) | P-glycoprotein efflux pump substrate status [6] |
| --- | --- | --- | --- | --- | --- | --- | --- | --- | --- | --- | --- | --- | --- | --- |
| F[B-](F)(F)c1cc(C(F)(F)F)nn1-c1ccccc1.[K+] [NS-1-19, Potassium trifluoro(3-triflouromethyl-1phenyl-1H-pyrazol-5-yl)borate] | better neuroprotection | better neuroprotection | almost equal viability | around 100% | – | – | – | – | – | – | – | – | – | – |
| Cc1cc([B-](F)(F)F)n(-c2ccccc2)n1.[K+] [NS-1-21, Potassium trifluoro(3-methyl-1phenyl-1H-pyrazol-5-yl)borate] | better neuroprotection | better neuroprotection | almost equal viability | around 100% | – | – | – | – | – | – | – | – | – | – |
| CC1=NN(c2ccccc2)C(=O)C1 [EDR, 3-methyl-1-phenyl-2-pyrazolin-5-one] | – | – | – | – | delayed the progression of ALS | metabolized pre-systematically | significant H2O2 scavenging effects in a dose dependent manner | no neurotoxicity and cytotoxicity | ~70±10 | protected NSC-34 cells from loss of cell viability | about 1.85 mg/ml | about 71.5% | about 28.5% | substrate |
| CC1(C)OB(c2cc(C(F)(F)F)nn2-c2ccccc2)OC1(C)C [NS-1-12, 3-triflouromethyl-5-(4,4,5,5-tetramethyl-1,3,2-dioxaborolan-2-yl)-1-phenyl1H-pyrazole] | – | better neuroprotection | almost equal viability | – | – | – | – | – | – | – | – | – | – | – |

— patent publication US20260232706A1, “1H-PYRAZOLE ANALOGUES AND METHODS AND USES THEREOF” (University of Manitoba, priority 2022, published 2026)
